Measured values reported in patent publication US9018370B2, “Derivatives of uridine phosphate and their uses in protein binding assays” (King's College London of Strand, priority 2009, dated 2015).

How the values were obtained:
[1] = Absorbance and fluorescence spectra of 5-R-UMP analogues; format: physicochemical; settings: for λmax: absorbance; for Emmax: fluorescence emission
Experimental: UV absorbance spectra were recorded on a PerkinElmer Lambda 25 UV-Vis spectrometer at ambient temperature in FarUV quartz cells (path length 1.0 cm). Fluorescence spectra were recorded on a PerkinElmer LS-45 spectrometer at ambient temperature in a quartz micro fluorescence cell (path length 1.0 cm).

[2] = Quantum yield determination of nucleotide derivatives; format: physicochemical; settings: for Q.Y.: in water
Experimental: Nucleotide derivatives were serially diluted in H2O (10, 20, 30, 40 and 50 μM for absorbance measurements, and 0.2, 0.4, 0.6, 0.8, 1 μM for fluorescence measurements), and UV absorbance and fluorescence emission (with λmax absorbance=λem fluorescence) were recorded for all samples. To determine quantum yields, for each absorbance and fluorescence spectrum the area under the curve (AUC) was calculated by numerical integration, applying the mid-point rule. For each compound, AUCabs and AUCem were then plotted over compound concentration according to AUCabs=A×[conc]+B and AUCem=A′×[conc]+B′. From these linear plots, the gradients A and A′ were extracted, and for each compound the specific quantum yield φs, under these experimental conditions, was calculated as the ratio A′/A. Quantum yields determined with this protocol for two reference compounds, 2-aminopyridine and L-tryptophan (2-aminopyridine: 0.60; L-tryptophan: 0.14) were in exact agreement with literature values. The quantum yields for reference compounds were used to calculate the general quantum yield φg for each nucleotide analogue, according to φg=φref×(A′/A)/(A′/A)ref.
Fluorescent uracil nucleosides and (sugar-)nucleotides can be obtained by connecting a known chromophore/fluorophore via an electronically nonconjugating linker to the natural uracil base (Sinkeldam et al. Chem. Rev. 2010, 110, 2579-2619). The photophysical features of the resulting nucleoside/(sugar-)nucleotide analogue are usually very similar to that of the parent fluorophore (Sinkeldam et al. Chem. Rev. 2010, 110, 2579-2619). In contrast, extending the uracil by electronically conjugating the base to additional aromatic moieties typically generates a new chromophore with unique, and somewhat unpredictable, photophysical characteristics (Sinkeldam et al. Chem. Rev. 2010, 110, 2579-2619). To precisely measure the intensity of the fluorescence emitted by the brightest fluorophores described above, we determined their quantum yield. These measurements were performed in water following the procedure reported by Nighswander-Remper and the results are shown in Table B below. Quantum yield determinations confirmed that 2p and 2q display the highest fluorescence and are 10-fold brighter than any other nucleotide analogues with a compact aryl- or heteroaryl substituent in position 5 that have been reported to date (Sinkeldam et al. Chem. Rev. 2010, 110, 2579-2619). That 2p and 2q absorb and fluoresce at long wavelength is an attractive feature, which makes these fluorophores suitable for analyses in biological environments. Additionally, we found the intensity of the fluorescence emission is conserved for UDP and UTP analogues, thereby providing attractive fluorescence probes candidates for fluorimetric assays.

[3] = biological target: T1, B. taurus α-1,3-GalT (Bos taurus, UniProt P14769); assay: Donor kinetics of UDP-Gal derivatives with GalT, HPLC; format: biochemical; settings: MnCl2 20 mM, MOPS pH 7.2, 37° C.
T1 construct: made in house
Experimental: J. Am. Chem. Soc. 122, 261-1269 (2000); Rich, J. R.; Szpacenko, A.; Palcic, M. M. & Bundle, D. R. Glycosyltransferase-Catalyzed Synthesis of Thiooligosaccharides. Angew. Chem. Int. Ed. […] ChemBioChem 9, 1632-1640 (2008). […] (total volume 100 μL, all concentrations are final concentrations). The reactions were stopped by cooling in dry ice. Samples were analysed immediately by HPLC on a PerkinElmer Series 200 machine equipped with a Supelcosil LC-18-T column (5 μm, 25 cm×4.6 mm), a column oven (set to 30° C.), and a diode array detector. Each sample (injection volume 40 μL) was eluted at 1.5 mL/min with a gradient of methanol (10-30%) against 0.5 M phosphate buffer (adjusted to pH 8 with triethylamine). […] Km and vmax values were determined by fitting data points to a Michaelis-Menten curve using GraFit 5.0.10.

[4] = Quantum yield determination of UDP-Gal derivatives 3a-d; format: physicochemical; settings: in H2O
Experimental: To determine quantum yields, for each absorbance and fluorescence spectrum the area under the curve (AUC) was calculated by numerical integration, applying the mid-point rule. For each compound, AUCabs and AUCfluo were then plotted over compound concentration according to AUCabs=A×[conc]+B (equation 1) and AUCfluo=A′×[conc]+B′ (equation 2). […] The quantum yields for reference compounds were used to calculate the general quantum yield φg for each compound 3a-d, according to φg=φref×(A′/A)/(A′/A)ref.

[5] = biological target: T2, Ggta1 (Bos taurus, UniProt P14769); assay: Variation in fluorescence of 3d and analogues upon incubation with Ggta1; format: binding, B. taurus; settings: various concentrations of Ggta1
T2 construct: made in house
Experimental: Fluorescence intensity measurements with 3d were carried out in black NUNC F96 MicroWell polystyrene plates on a BMG labtech PolarStar microplate reader equipped with a 350±5 nm excitation filter and a 430±5 nm emission filter. The number of flashes per wells was set to 50 (gain: 2240; position delay: 0.2 s). Prior to readings, plates were incubated, with shaking, for 10 min at 30° C. (double orbital, shaking width 4 mm, 10 seconds). Results were visualised with BMG labtech data analysis software Mars 1.10 and analysed with GraFit version 5.0.10.
Samples were pipetted into the requisite wells of a black NUNC 96-well plate as shown in tables E1-E3, at the end of the description. Key: B—Tris/HCl buffer (50 mM, pH 7; 40 μL); F—fluorophore 3d (200 nM in Tris/HCl buffer; 40 μL); M—MnCl2 (10 mM in Tris/HCl buffer; […]); E—galactosyltransferase (in Tris/HCl buffer; 40 μL); I—inhibitor (in Tris/HCl buffer; 40 μL). Total volume/well: 200 μL. All experiments were carried out in triplicate, unless indicated otherwise.
We also carried out an experiment on 3d (numbered 18e in FIG. 4) and different analogues of 3d, namely the nucleoside 5h, the nucleotide 6r and nucleoside diphosphate 22d, to show their variation in fluorescence on binding to Ggta1.
The synthesis of 5h, 6r and 22d are shown below. The protocol for the microplate/fluorescence experiments was the same as in Example 2.

T1 sequence (P14769 whole entry): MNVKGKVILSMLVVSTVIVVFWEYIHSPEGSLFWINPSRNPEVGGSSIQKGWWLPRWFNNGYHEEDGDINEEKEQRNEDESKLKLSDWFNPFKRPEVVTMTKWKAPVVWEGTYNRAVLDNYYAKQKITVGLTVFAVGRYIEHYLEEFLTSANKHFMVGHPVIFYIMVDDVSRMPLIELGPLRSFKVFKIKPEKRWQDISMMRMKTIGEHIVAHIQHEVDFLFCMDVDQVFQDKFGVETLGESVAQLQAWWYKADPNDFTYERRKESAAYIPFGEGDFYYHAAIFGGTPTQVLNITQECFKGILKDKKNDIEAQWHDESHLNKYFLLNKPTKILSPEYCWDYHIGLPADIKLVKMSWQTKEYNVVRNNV
T2 sequence (P14769 whole entry): as above

Structure (SMILES) | Fluo Intensity at 100 μM [1] | λmax [1] | Emmax [1] | other results
O=c1[nH]c(=O)n([C@@H]2O[C@H](COP(=O)(O)O)[C@@H](O)[C@H]2O)cc1-c1cccc(O)c1 [2e, 5-(3-Hydroxyphenyl)-uridine-5′-monophosphate] | – | 285 nm | – | –
O=c1[nH]c(=O)n([C@@H]2O[C@H](COP(=O)(O)O)[C@@H](O)[C@H]2O)cc1-c1ccc(C(F)(F)F)cc1 [2i, 5-(4-Trifluoromethylphenyl)-uridine-5′-monophosphate] | 5.3 a.u. | 280 nm | 383 nm | –
O=c1[nH]c(=O)n([C@@H]2O[C@H](COP(=O)(O)O)[C@@H](O)[C@H]2O)cc1-c1ccccc1 [2a, 5-Phenyluridine-5′-monophosphate] | 40 a.u. | 278 nm | 403 nm | –
O=C(O)c1ccc(-c2cn([C@@H]3O[C@H](COP(=O)(O)O)[C@@H](O)[C@H]3O)c(=O)[nH]c2=O)cc1 [2h, 5-(4-Carboxyphenyl)-uridine-5′-monophosphate] | 17.6 a.u. | 283 nm | 411 nm | –
COc1ccc(-c2cn([C@@H]3O[C@H](COP(=O)(O)OP(=O)(O)O[C@H]4O[C@H](CO)[C@H](O)[C@H](O)[C@H]4O)[C@@H](O)[C@H]3O)c(=O)[nH]c2=O)cc1 [3b, 5-(4-Methoxyphenyl)-UDP-α-D-galactose] | – | – | – | Km [3]: 82 ± 11 µM; kcat [3]: 0.004 s⁻¹; Quantum yield [4]: 0.024
O=Cc1ccc(-c2cn([C@@H]3O[C@H](COP(=O)(O)OP(=O)(O)O)[C@@H](O)[C@H]3O)c(=O)[nH]c2=O)s1 [22d, 5-(5-Formylthien-2-yl)-UDP] | – | – | – | Variation in fluorescence on binding to Ggta1 [5]: varied their intensity of luminescence with Ggta1
O=c1[nH]c(=O)n([C@@H]2O[C@H](COP(=O)(O)O)[C@@H](O)[C@H]2O)cc1-c1ccc(Cl)cc1 [2b, 5-(4-Chlorophenyl)-uridine-5′-monophosphate] | 78 a.u. | 281 nm | 398 nm | Q.Y. [2]: 0.001
O=c1[nH]c(=O)n([C@@H]2O[C@H](COP(=O)(O)O)[C@@H](O)[C@H]2O)cc1-c1ccccc1O [2f, 5-(2-Hydroxyphenyl)-uridine-5′-monophosphate] | 0.9 a.u. | 273 nm | 415 nm | –
O=c1[nH]c(=O)n([C@@H]2O[C@H](COP(=O)(O)OP(=O)(O)O[C@H]3O[C@H](CO)[C@H](O)[C@H](O)[C@H]3O)[C@@H](O)[C@H]2O)cc1-c1ccco1 [3c, 5-(2-Furyl)-UDP-α-D-galactose] | – | – | – | Km [3]: 69 ± 13 µM; kcat [3]: 0.0044 s⁻¹; Quantum yield [4]: 0.04
CC(C)(C)OC(=O)NCc1cccc(-c2cn([C@@H]3O[C@H](COP(=O)(O)O)[C@@H](O)[C@H]3O)c(=O)[nH]c2=O)c1 [2d, 5-(3-N-BOC-aminomethylphenyl)-uridine-5′-monophosphate] | 11.6 a.u. | 281 nm | 427 nm | –
O=c1[nH]c(=O)n([C@@H]2O[C@H](COP(=O)(O)O)[C@@H](O)[C@H]2O)cc1-c1ccc2ccccc2c1 [2g, 5-(2-Naphtyl)-uridine-5′-monophosphate] | 32.2 a.u. | 221 nm | 450 nm | –
O=c1[nH]c(=O)n([C@@H]2O[C@H](COP(=O)(O)OP(=O)(O)O[C@H]3O[C@H](CO)[C@H](O)[C@H](O)[C@H]3O)[C@@H](O)[C@H]2O)cc1-c1ccccc1 [3a, 5-Phenyl UDP-α-D-galactose] | – | – | – | Km [3]: 96 ± 8 µM; kcat [3]: 0.0021 s⁻¹; Quantum yield [4]: <0.01
Cc1ccc(-c2cn([C@@H]3O[C@H](COP(=O)(O)O)[C@@H](O)[C@H]3O)c(=O)[nH]c2=O)cc1[N+](=O)[O-] [2c] | 6.7 a.u. | 279 nm | 434 nm | –

More lines, main results first:

Fluo Intensity at 100 μM [1] | λmax [1] | Emmax [1] | Structure (SMILES) | other results
5.3 a.u. | 278 nm | 382 nm | CS(=O)(=O)c1cccc(-c2cn([C@@H]3O[C@H](COP(=O)(O)O)[C@@H](O)[C@H]3O)c(=O)[nH]c2=O)c1 [2k, 5-(3-Methanesulfonylphenyl)-uridine-5′-monophosphate] | –
640 a.u. | 348 nm | 431 nm | O=Cc1ccc(-c2cn([C@@H]3O[C@H](COP(=O)(O)O)[C@@H](O)[C@H]3O)c(=O)[nH]c2=O)o1 [2n] | Q.Y. [2]: 0.04
74.8 a.u. | 289 nm | 414 nm | COc1cncc(-c2cn([C@@H]3O[C@H](COP(=O)(O)O)[C@@H](O)[C@H]3O)c(=O)[nH]c2=O)c1 [2j, 5-(5-Methoxy-3-pyridyl)-uridine-5′-monophosphate] | –
– | 262 nm | 377 nm | O=c1[nH]c(=O)n([C@@H]2O[C@H](COP(=O)(O)O)[C@@H](O)[C@H]2O)cc1I [compound 1, 5-Iodouridine-5′-monophosphate] | –
603 a.u. | 279 nm | 444 nm | COc1ccc(-c2cn([C@@H]3O[C@H](COP(=O)(O)O)[C@@H](O)[C@H]3O)c(=O)[nH]c2=O)cc1 [2l, 5-(4-Methoxyphenyl)-uridine-5′-monophosphate] | Q.Y. [2]: 0.02
497 a.u. | 314 nm | 437 nm | O=c1[nH]c(=O)n([C@@H]2O[C@H](COP(=O)(O)O)[C@@H](O)[C@H]2O)cc1-c1ccco1 [2m, 5-(Furan-2-yl)-uridine-5′-monophosphate] | Q.Y. [2]: 0.04
387 a.u. | 267 nm | 453 nm | O=Cc1ccsc1-c1cn([C@@H]2O[C@H](COP(=O)(O)O)[C@@H](O)[C@H]2O)c(=O)[nH]c1=O [2o, 5-(3-Formylthien-2-yl)-uridine-5′-monophosphate] | Q.Y. [2]: 0.02
>650 a.u. | 348 nm | 433 nm | CC(=O)c1ccc(-c2cn([C@@H]3O[C@H](COP(=O)(O)O)[C@@H](O)[C@H]3O)c(=O)[nH]c2=O)s1 [2p, 5-(5-Acetylthien-2-yl)-uridine-5′-monophosphate] | Brightness relative to any other reported 5-aryl/heteroaryl nucleotide analogues [2]: 10 fold; Q.Y. [2]: 0.24
